Source: publication PMC5690597, “Suppression and resolution of autoimmune arthritis by rhesus θ-defensin-1, an immunomodulatory macrocyclic peptide” (PLoS ONE, 2017)
Bridge positions count the residues as written; N and C are the ends. Peptide text beside a SMILES is read from it.

Experiments:
[1] = no method or data given
[2] = cited from earlier work
[3] = test system: DA rats with advanced PIA; test: Severe (advanced) pristane-induced arthritis (AS ≥ 12); type: in vivo, rat
Method: Female DA/OlaHsd (D blood group allele and Agouti, also known as Dark Agouti), rats were obtained from Harlan Laboratories (Indianapolis, IN). Animals were allowed to acclimate for 48–72 hours prior to experimental use. Animals were fed standard chow ad lib during a 12-hour day/night cycle. PIA was induced in 5–7 week old animals (90–100 gm) by intradermal injection of 250 μl pristane (Sigma) divided into 3–5 sites at the base of the tail. Animals were monitored daily and disease severity of each limb was scored 0–4 using the method of Brand et al.. The severity scores for all limbs of individual animals were totaled to give an individual’s arthritis severity score (AS) ranging from zero for normal animals to maximum disease score of sixteen. Disease severity was assessed by at least two scorers and the inter-rater agreement (kappa) value was 0.806 as determined using MedCalc Statistical Software version 14.8.1 (MedCalc Software, Ostend, Belgium). In three separate trials, treatment was also blinded to scorers. There was no statistical difference between blinded and unblinded scoring of any treatment cohort. Treatment with saline (vehicle), RTD-1, or anti-arthritic agents was randomized and initiated when an animal first presented with an AS of 3 or more. […]

[4] = test system: FLS; conditions: RTD-1 0–30 μg/ml; all samples; LDH release
Method: FLS were seeded at 3 × 10^3 cells/well in a 96-well TC treated plate (Greiner). Cells were allowed to adhere for 18 h and medium was replaced prior to addition of peptide or vehicle. RTD-1 was added to wells at final concentrations of 0–30 μg/ml in culture medium and incubated for 0, 24, or 48 h at 37°C in 5% CO2. FLS cell number was determined by DNA staining using CyQuant Cell Proliferation Assay Kit (Invitrogen) per manufacturer’s instructions. Cellular toxicity was determined by measuring the release of lactate dehydrogenase (LDH) using a CytoTox 96 Cytotoxicity Assay (Promega Bio Sciences, San Luis Obispo, CA) in FLS supernatants. All assays were performed with ≥ 7 replicates.

[5] = test system: anti-RTD-1 Ig; test: RTD-1 immunogenicity analysis (dot immunoblot); type: in vivo, DA and Sprague Dawley rats; conditions: 8–42 s.c. injections of 5 mg/kg; serum or plasma
Method: Adult DA or Sprague-Dawley rats were challenged s.c. with 5 mg/kg RTD-1 every day (15–42 injections), or every other day (8 injections). Several animals were boosted 2 months later, prior to serum or plasma collection. Immune responses were analyzed by dot blot on nitrocellulose membranes as described in legend to the figure.

[6] = in vivo; conditions: plasma
Method: Eight to 12-week old male Sprague Dawley rats (Harlan) were fitted with a surgically implanted jugular vein catheter for sequential blood collection (Culex NxT Automated In Vivo Sampling System; BASi, West Lafayette, IN), and monitored daily. RTD-1 dissolved in saline was injected subcutaneously at 5 mg/kg to 4 animals. Approximately 200 μl of blood was collected before peptide administration and at 0.25, 0.5, 1, 2, 4, 6, 8, 12, 18, 24, 30, 36, 48, 60, and 72 h after RTD-1 injection. Blood was collected into vials containing K3EDTA and plasma was collected after centrifugation. Plasma concentrations of RTD-1 were determined after solid phase extraction (SPE) by weak cation exchange (Oasis WCX, Waters, Milford, MA) and quantitation by C18 RP-UPLC, photodiode array (PDA) detection, and electrospray-ionization mass spectrometry (ESI-MS). Chromatography was performed on an Acquity H-class UPLC with an analytical PDA detector using Empower 3 software (Waters). Quantitative mass spectrometry was performed on post PDA eluent using a Micromass Quattro Ultima mass spectrometer with MassLynx 4.1 (Waters). Pharmacokinetic analysis was performed using parametric population modeling with maximum likelihood estimation via the EM algorithm with sampling (MLEM) as implemented in the ADAPT 5 (Version 5.0.49) PK/PD Systems Analysis Software (Biomedical Simulations Resource, University of Southern California).

[7] = test system: IL-6 production by fibroblast-like synoviocytes (FLS); test: Expression of IL-6 by stimulated FLS; type: cell-based, DA rat; conditions: RTD-1 10 μg/ml; TNFα or IL-1β 3 or 10 ng/ml; 24 h; ELISA; n = 12, 3 experiments
Method: Fibroblast-like synoviocytes (FLS) were isolated by enzymatic digestion of the synovial tissue from DA rats with PIA as previously described. Cells were washed and suspended in DMEM supplemented with 10% fetal bovine serum (Gibco, Grand Island, NY), 30 mg/ml L-glutamine (Sigma), 250 μg/ml amphotericin B (Sigma), and […] gentamicin (Gibco). After overnight culture, non-adherent cells were removed and adherent cells were cultured to approximately 70–90% confluence and passaged following detachment with 0.25% trypsin-EDTA for 3 min at 37°C. All experiments were performed with FLS after at least four passages.
FLS were cultured in 12-well plates at 4–6 × 10^4 cells/well for 24 h (viability > 95% by trypan blue staining). Medium was replaced and FLS were incubated with TNFα or IL-1β at final concentrations of 3 or 10 ng/ml plus RTD-1 (10 μg/ml in 0.01% acetic acid (HOAc)) or vehicle alone. After 24 h incubation, FLS culture supernatants were removed, clarified by centrifugation, and analyzed for IL-6 by ELISA (Invitrogen, Carlsbad, CA).

[8] = administered subcutaneously; this study and ref 9
[9] = male, Sprague Dawley, rat, sc, 5 mg/kg
[10] = single 5 mg/kg s.c., male Sprague Dawley rats, n = 4, SPE, RP-UPLC/ESI-MS, 2-compartment population model

## CC[C@H](C)[C@@H]1NC(=O)[C@@H]2CSSC[C@H](NC(=O)[C@H](CCCNC(=N)N)NC(=O)[C@@H]3CSSC[C@H](NC1=O)C(=O)N[C@@H]([C@@H](C)O)C(=O)N[C@@H](CCCNC(=N)N)C(=O)NCC(=O)N[C@@H](Cc1ccccc1)C(=O)N3)C(=O)N[C@@H](CC(C)C)C(=O)N[C@H]1CSSC[C@H](NC(=O)[C@H](C(C)C)NC(=O)CNC(=O)[C@H](CCCNC(=N)N)NC(=O)[C@H](CCCNC(=N)N)NC1=O)C(=O)N[C@@H](CCCNC(=N)N)C(=O)N2 [RTD-1, rhesus θ-defensin 1] (cyclo(GFCRCLCRRGVCRCICTR); disulfide 3-16, 5-14, 7-12)
[1]
  stability in rat plasma: highly stable
[2]
  stability in human plasma: highly stable
[3]; 5 mg/kg s.c. daily until AS = 0, AS ≥ 12 before treatment
  resolution of clinical disease by day 15: complete resolution of clinical disease in all RTD-1 treated rats
[3]; after treatment stop and a disease-free interval
  RTD-1 treated animals that relapsed with joint disease: three of five
[4]
  cell viability in proliferation assay: ≥ 98%
[5]
  humoral response (anti-RTD-1 Ig) by dot immunoblot: No anti-RTD-1 Ig was detected
[6]; [9]
  clearance: 3.55 mL/h/kg
  half-life: 32.3 h
[6]; [10]
  distribution clearance: 22.3 mL/h/kg
  distribution half-life: 0.285 h
[7]
  reduction of IL-6 production by FLS: 27.3–42.2%
[8]
  tolerability: well tolerated
